In patent US8362001B2, “Azetidinyl diamides as monoacylglycerol lipase inhibitors” (Janssen Pharmaceutica NV, priority 2009, dated 2013):
Residue numbers refer to the chain shown, from its start.

Tests used:
[1] = target: T1, purified wild type MGL (wt-MGLL 6H-11-313) (Homo sapiens, UniProt Q99685); assay: biochemical
T1 sequence (Q99685 1-303): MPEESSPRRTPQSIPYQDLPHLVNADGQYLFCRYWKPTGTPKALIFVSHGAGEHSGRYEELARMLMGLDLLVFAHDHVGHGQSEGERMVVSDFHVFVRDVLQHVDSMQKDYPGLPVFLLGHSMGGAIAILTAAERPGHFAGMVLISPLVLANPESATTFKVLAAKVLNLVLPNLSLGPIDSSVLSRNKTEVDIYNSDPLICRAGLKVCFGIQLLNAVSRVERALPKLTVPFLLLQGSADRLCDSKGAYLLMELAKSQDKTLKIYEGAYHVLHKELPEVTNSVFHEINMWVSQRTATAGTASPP

mutant MGL = target: T2, mutant MGL (Homo sapiens, UniProt Q99685, L169S/L176S); assay: MGL ThermoFluor assay - mutant
T2 sequence (Q99685 1-303 L169S/L176S): T1 sequence (Q99685 1-303) with L169S, L176S
Protocol: The ThermoFluor (TF) assay is a 384-well plate-based binding assay that measures thermal stability of proteins^1,2. […] TF dye used in all experiments was 1,8-ANS (Invitrogen: A-47). Final TF assay conditions used for MGL studies were 0.07 mg/ml of mutant MGL, 100 μM ANS, 200 mM NaCl, 0.001% Tween-20 in 50 mM PIPES (pH=7.0).
Screening compound plates contained 100% DMSO compound solutions at a single concentration. […] Columns 12 and 24 were used as DMSO reference and contained no compound. […] Following compound dispension, protein and dye solutions were added to achieve the final assay volume of 3 μL.
Bar-coded assay plates were robotically loaded onto a thermostatically controlled PCR-type thermal block and then heated from 40 to 90° C. degrees at a ramp-rate of 1° C./min for all experiments. Fluorescence was measured by continuous illumination with UV light (Hamamatsu LC6), supplied via fiber optics and filtered through a band-pass filter (380-400 nm; >60D cutoff). Fluorescence emission of the entire 384-well plate was detected by measuring light intensity using a CCD camera (Sensys, Roper Scientific) filtered to detect 500±25 nm, resulting in simultaneous and independent readings of all 384 wells. A single image with 20-sec exposure time was collected at each temperature, and the sum of the pixel intensity in a given area of the assay plate was recorded vs temperature and fit to standard equations to yield the Tm^1. • 1.
For some experiments, quantitative NMR spectroscopy (qNMR) was used to measure concentration of the initial 100% DMSO compound solutions and, using the same fitting method, qKd values were determined

MGL = target: T3, MGL (Rattus norvegicus, UniProt Q8R431); assay: 2-AG accumulation assay in rat brain homogenate; assay type: biochemical; settings: compound 1 μM, percent vehicle = 2-AG accumulation with compound / in vehicle x 100, read-out: Rat Brain 2AG % VehCntrl (%) @1 μM
T3 construct: one g rat brain was homogenized using a Polytron homogenizer; from tissue; host or cells: rat brain homogenate
T3 sequence (Q8R431 1-303): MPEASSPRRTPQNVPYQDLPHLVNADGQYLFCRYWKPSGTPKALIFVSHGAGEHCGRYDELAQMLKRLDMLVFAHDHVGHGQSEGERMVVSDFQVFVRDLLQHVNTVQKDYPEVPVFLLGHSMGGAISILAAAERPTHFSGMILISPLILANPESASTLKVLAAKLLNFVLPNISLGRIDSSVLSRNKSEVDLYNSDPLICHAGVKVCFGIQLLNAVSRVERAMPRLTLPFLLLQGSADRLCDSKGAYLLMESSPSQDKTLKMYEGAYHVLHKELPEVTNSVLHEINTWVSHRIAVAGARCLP

rat = assay: CFA-induced paw radiant heat hypersensitivity; assay type: in vivo; settings: 30 mg/kg p.o., HPβCD, last time point 300 min, group mean values
Protocol: Each rat was placed in a test chamber on a warm glass surface and allowed to acclimate for approximately 10 min. A radiant thermal stimulus (beam of light) was then focused through the glass onto the plantar surface of each hind paw in turn. The thermal stimulus was automatically shut off by a photoelectric relay when the paw was moved or when the cut-off time was reached (20 sec for radiant heat at ˜5 amps). An initial (baseline) response latency to the thermal stimulus was recorded for each animal prior to the injection of complete Freund's adjuvant (CFA). 24 h following intraplantar CFA injection, the response latency of the animal to the thermal stimulus was then re-evaluated and compared to the animal's baseline response time. […] Post-compound treatment withdrawal latencies were assessed at fixed time intervals, typically 30, 60, 120, 180, and 300 min.
The percent reversal (% R) of hypersensitivity was calculated in one of two different ways: 1) using group mean values or 2) using individual animal values. […]
Method 1. For all compounds, the % R of hypersensitivity was calculated using the mean value for groups of animals at each time point according to the following formula: % reversal=[(group treatment response−group CFA response)/(group baseline response−group CFA response)]×100 Results are given for the maximum % reversal observed for each compound at any time point tested. […]

| SMILES | IC50 [1] [nM] | Kd (mutant MGL) [nM] | further results |
| --- | --- | --- | --- |
| O=C(c1ccccc1)N1CCN(C2CN(C(=O)c3ccc4c(c3)c(F)cn4-c3ccc(F)cc3)C2)CC1 [Cpd 574, 3-Fluoro-1-(4-fluorophenyl)-5-({3-[4-(phenylcarbonyl)piperazin-1-yl]azetidin-1-yl}carbonyl)-1H-indole] | 49 | 48 | – |
| O=C(c1ccc[nH]1)N1CC(N2CCN(C(=O)c3cc4cc(C(F)(F)F)ccc4s3)CC2)C1 [Cpd 722, 1-[1-(1H-Pyrrol-2-ylcarbonyl)azetidin-3-yl]-4-{[5-(trifluoromethyl)-1-benzothiophen-2-yl]carbonyl}piperazine] | – | – | activity at 1 µM (MGL): 240% |
| C/C(=C\c1ccc(Cl)cc1)c1c(C)c(C(=O)N2CC(N3CCN(C(=O)c4nccs4)CC3)C2)nn1-c1ccc(Cl)cc1Cl [Cpd 1010] | – | – | inhibition in vivo at 30 mg/kg (rat; Rattus norvegicus, po, 5 h, read-out: Method 1: peak % reversal): 23.4% |
| O=C(c1ccc(-c2cccc(C(F)(F)F)c2)c(Cl)c1)N1CC(N2CCN(C(=O)c3cscn3)CC2)C1 [Cpd 1102] | – | – | Method 1: peak % reversal (rat): 38% |
| Cc1nc(C(=O)N2CCN(C3CN(C(=O)c4ccc(-c5cccc(C(F)(F)F)c5)cc4)C3)CC2)cs1 [Cpd 1217, 1-[(2-Methyl-1,3-thiazol-4-yl)carbonyl]-4-(1-{[3′-(trifluoromethyl)biphenyl-4-yl]carbonyl}azetidin-3-yl)piperazine] | 220 | 104 | – |
| Cc1cn(-c2ccc(F)c(F)c2)c2ccc(C(=O)N3CCN(C4CN(C(=O)c5ccc[nH]5)C4)CC3)cc12 [Cpd 1219, 1-(3,4-Difluorophenyl)-3-methyl-5-({4-[1-(1H-pyrrol-2-ylcarbonyl)azetidin-3-yl]piperazin-1-yl}carbonyl)-1H-indole] | 235 | 25 | – |
| O=C(c1ccc(-c2cccc(C(F)(F)F)c2)cc1)N1CC(N2CCN(C(=O)c3ccc(F)s3)CC2)C1 [Cpd 1336, 1-[(5-Fluorothiophen-2-yl)carbonyl]-4-(1-{[3′-(trifluoromethyl)biphenyl-4-yl]carbonyl}azetidin-3-yl)piperazine] | < 5 | 2 | – |
| O=C(c1ccc2c(ccn2-c2ccc(C(F)(F)F)cc2)c1)N1CCN(C2CN(C(=O)c3cscn3)C2)CC1 [Cpd 1337, 5-({4-[1-(1,3-Thiazol-4-ylcarbonyl)azetidin-3-yl]piperazin-1-yl}carbonyl)-1-[4-(trifluoromethyl)phenyl]-1H-indole] | < 5 | 40 | – |
